pIC50: −log10 of the molar value.
Assays:
[1] = target: T1, Tumor necrosis factor receptor superfamily member 16 (Homo sapiens, UniProt P08138); assay: Inhibition of [125I]- NGF binding to extracellular domain of p75 receptor; IA=Inactive
T1 sequence (P08138 whole entry): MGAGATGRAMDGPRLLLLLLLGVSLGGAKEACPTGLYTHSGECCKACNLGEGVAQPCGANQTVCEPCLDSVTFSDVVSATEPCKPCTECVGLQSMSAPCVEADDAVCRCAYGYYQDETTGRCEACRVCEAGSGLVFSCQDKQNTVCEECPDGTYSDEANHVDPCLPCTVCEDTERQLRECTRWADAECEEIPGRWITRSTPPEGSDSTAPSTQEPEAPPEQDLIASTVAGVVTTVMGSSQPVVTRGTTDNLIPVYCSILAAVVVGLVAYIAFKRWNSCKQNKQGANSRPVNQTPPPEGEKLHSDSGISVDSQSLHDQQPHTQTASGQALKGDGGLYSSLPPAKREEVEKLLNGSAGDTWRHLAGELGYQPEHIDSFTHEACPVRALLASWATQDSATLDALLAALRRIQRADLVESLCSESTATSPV

[2] = target: T2, Tumor necrosis factor receptor superfamily member 16 (Homo sapiens) (UniProt P08138); assay: Percent inhibition of [125I]- NGF binding to extracellular domain of p75 receptor at 10 uM
T2 sequence (whole entry): T1 sequence (P08138 whole entry)

[3] = target: T1, Tumor necrosis factor receptor superfamily member 16; assay: Inhibition of [125I]- NGF binding to extracellular domain of p75 receptor

Compound | IC50 [1] | also measured
O=C(O)c1cc(O)c2cc([N+](=O)[O-])ccc2n1 | Not Active | 
O=C(O)c1ccc2nc(C(=O)O)cc(O)c2c1 | Not Active | 
Cc1ccc(C(=O)Nc2cccc3nc(C(=O)O)cc(O)c23)cc1 |  | inhibition [2]: 38%
COc1cc(C(=O)O)nc2ccc(N)cc12 |  | inhibition [2]: 28%
O=C(O)c1cc(O)c2c(Cl)cc(Cl)cc2n1 | Not Active | 
Nc1ccc2nc(C(=O)O)cc(O)c2c1 |  | pIC50 [3]: 5.51
Cn1c2ccc(NC(=O)c3ccccc3)cc2c(=O)n2nc(C(=O)O)cc12 |  | pIC50 [3]: 6.70
COc1cc(C(=O)O)nc2ccc(NC(=O)c3ccc(C)cc3)cc12 |  | inhibition [2]: 29%
NC(=O)c1ccc2nc(C(=O)O)cc(O)c2c1 | Not Active | 
Cn1c(C(=O)O)cc(=O)c2cc(N)ccc21 | Not Active | 
Nc1ccc2c(O)cc(C(=O)O)nc2c1 |  | inhibition [2]: 37%
Cc1ccc(C(=O)Nc2ccc3c(c2)c(=O)cc(C(=O)O)n3C)cc1 | Not Active | 
Cc1ccc(C(=O)Nc2ccc3c(O)cc(C(=O)O)nc3c2)cc1 | Not Active | 
O=C(O)c1ccc2c(O)cc(C(=O)O)nc2c1 | Not Active | 
Nc1cccc2nc(C(=O)O)cc(O)c12 |  | inhibition [2]: 50%
COC(=O)c1c(C)sc2c(O)cc(C(=O)Nn3cnnn3)nc12 |  | pIC50 [3]: 5.89
O=C(O)c1cc(=O)c2ccccc2[nH]1 [TRANSTORINE] | Not Active | 
O=C(O)c1cc(O)c2c(C(=O)O)cccc2n1 | Not Active | 
Cc1ccc(C(=O)Nc2ccc3nc(C(=O)O)cc(O)c3c2)cc1 | Not Active | 
COC(=O)c1c(C)sc2c(O)cc(C(=O)O)nc12 |  | pIC50 [3]: 5.64

— ChEMBL document CHEMBL1128178, “Kynurenic acid derivatives inhibit the binding of nerve growth factor (NGF) to the low-affinity p75 NGF receptor” (J Med Chem, 1995)
